{"source": "patent US8962686B2", "about": "(priority 2010, dated 2015)", "key": {"[1]": {"tested_on": "trabecular meshwork (TM) cells", "settings": "for percentage of TM cell loss: 14 days", "protocol": "The cell density in the TM aqueous outflow region was examined using the Dex and Dex+PB treated rabbit eyes. […] The specimens were paraffin-processed and serially sectioned at a thickness of 5 μm for hematoxylin-eosin histochemistry. […] The number of cells in TM region was quantified and area was measured by Image J software (NIH, US). (D) The cell densities (mean±standard deviation) were compared among the control and treatment groups and P values were calculated by unpaired Student's t-test."}, "[2]": {"tested_on": "trabecular meshwork extracellular matrix", "settings": "14 days", "protocol": "An experiment was conducted to determine whether sodium phenylbutyrate (PB) could reduce the amount of glycogen and collagen accumulated in the extracellular matrix of the trabecular meshwork. The extracellular protein and collagen substrate deposited on paraffin sections of TM aqueous outflow region were examined in Dex treated and Dex +PB treated rabbit eyes by special periodic acid-Schiff and Masson trichrome histochemical staining The rabbit eyes were paraffin-processed and serially sectioned at a thickness of 5 μm for histochemistry. Sections of (A) untreated control; (B) treated with Dex (0.1%) for 14 days and (C) treated with Dex (0.1%) +PB (0.5mM) for 14 days are shown."}, "[3]": {"tested_on": "steroid-induced intraocular pressure (IOP) rise", "settings": "for percentage of mean reduction in IOP rise: topical PB 1, 5 and 15 mM analyzed as one group, with Dex, vs Dex+BSS eye", "protocol": "To explore this hypothesis, trimethylamine N-oxide (TMAO) was tested out using the same steroid-induced glaucoma model in rabbits. […] Fourteen New Zealand albino rabbits (7-week-old male) were divided into 5 groups. The right eyes received topical dexamethasone four times a day followed by topical TMAO (2, 10, 50, 100 and 300 mM) four times a day whereas the left eyes received topical dexamethasone four times a day followed by balanced salt solution, a physiological saline that acted as a control, four times a day.\nDexamethasone, a commonly used steroid was used in all our experiments. […] Herein, nine 7-week-old male New Zealand albino rabbits were randomly divided into 3 groups and each of them received Dexamethasone (Dex) (MaxiDex containing 0.1% Dex, Alcon) 5 times a day in both eyes. In addition, topical sodium phenylbutyrate (PB) (Triple Crown America/TriButyrate, Inc. Perkasie, Pa.) in concentrations of 1, 5 or 15 mM were applied to their right eyes 5 times a day and a balanced salt solution (BSS), a physiological saline that acted as a control, to their left eyes 5 times a day. Intraocular pressure (IOP) was measured twice a week at an interval of 3-4 days by a masked technician. […] Three time points (days 14, 37 and 53) were chosen for data analysis. […] The mean baseline intraocular pressure (IOP) was 11.5 mmHg for both eyes. The percentage of reduction in IOP rise by PB was defined as (“Mean IOP rise in eyes with Dex+BSS” minus “Mean IOP rise in eyes with Dex+PB”) divided by “Mean IOP rise in eyes with Dex+BSS”×100%.\nFIG. 2B charts show the longitudinal profiles of IOP measurements of individual rabbits receiving Dex+BSS (left eye, diamonds line) and Dex+PB (right eye, squares line) respectively.\nFourteen 7-week-old male New Zealand albino rabbits received topical dexamethasone (Dex) (MaxiDex containing 0.1% Dex, Alcon) 4 times a day in both eyes."}, "[4]": {"tested_on": "trabecular meshwork (TM) tissues", "protocol": "The ultrastructural morphology of rabbit trabecular meshwork (TM) tissues was examined in untreated control eyes, dexamethasone (Dex) (0.1%) treated eyes and Dex+PB (1 mM) treated eyes by transmission electron microscopy. […] The normal rabbit trabecular meshwork is shown in FIGS. 12A and B. It consists of bundles of fine fibers (elastic and collagen fibers) of the trabecular cells (FIG. 12A)."}, "[5]": {"tested_on": "rabbit eye", "method": "Adult male rabbits (n=13) received topical sodium phenylbutyrate (1 and 5 mM) 4 times a day in both eyes. […] The rabbit eyes were examined by an ophthalmologist on days 7 and 14 in which the rabbits were anesthetized with intramuscular injection of ketamine (75 mg/kg) and xylazine (7.5 mg/kg)."}, "[6]": {"tested_on": "Y437H mutant myocilin transgene mice", "settings": "oral administration; compared to untreated transgene mice; cited from earlier work"}, "[7]": {"tested_on": "steroid-induced IOP rise", "method": "Eight rabbits were studied in this experiment. All their left eyes received Dex+BSS 5 times a day, from day 0 to day 60, the day when the experiment ended (squares line for both Phase I and Phase II). […] The right eyes of 3 randomly-chosen rabbits were treated with Dex+PB (sodium phenylbutyrate, 0.5 mM) eye drops 5 times a day, from day 0 to day 42. […] On day 43, the treatment of the right eyes of the 3 rabbits changed from Dex+PB to topical Dex+BSS. Still, Dex+BSS eye drops were applied 5 times a day, until day 60 when the experiment ended (broken brown line in Phase II)."}, "[8]": {"tested_on": "elevated intraocular pressure from steroid-induced IOP rise", "method": "On day 56 when Phase II of the experiment started, topical sodium phenylbutyrate (1 mM), instead of balanced salt solution, was applied to the left eyes of 5 rabbits (FIG. 3)."}, "[9]": {"tested_on": "cultured human trabecular meshwork (TM) cells", "test": "MTT cell viability/proliferation assay", "settings": "PB 0.5 mM and 1 mM, 5 days", "method": "In these tests, cultured human TM cells (7000 cells/ml) were plated in each well in Dulbecco's Modified Eagle medium (DMEM) supplemented with 1000 mg/L glucose, 2% charcoal-stripped fetal bovine serum and antibiotics. They were treated with sodium phenylbutyrate (PB) (0.5, 1 and 5 mM), dexamethasone (Dex) (100 and 500 nM) and a combination of both for 5 days. Using the 3-(4,5-Dimethylthiazol-2-yl)-2,5-diphenyltetrazolium bromide dye (MTT) cell viability/proliferation assay (Invitrogen), the formazan intensity was measured with a multiplate reader at an excitation wavelength of 595 nm and an emission wavelength 610 nm. The mean signal intensity was expressed as a percentage and was compared to the untreated control among treatments."}, "[10]": {"settings": "topical 1 and 5 mM 4 times a day"}}, "note": "“Also recorded” adds a separate entry of the source. Where two headings read alike, the source gives them in different places.", "data": [{"molecule": "C[C@@H]1C[C@H]2[C@@H]3CCC4=CC(=O)C=C[C@]4(C)[C@@]3(F)[C@@H](O)C[C@]2(C)[C@@]1(O)C(=O)CO", "note": "[dexamethasone]", "values": [{"measurement": "reduction of cell density in TM region", "setting": "[1]; Dex 0.1% for 14 days, vs untreated control", "value": 53, "unit": "%"}, {"measurement": "glycogen deposition in trabecular meshwork (periodic acid-Schiff)", "setting": "[2]; topical dexamethasone 0.1% alone", "value": "greater deposition of glycogen"}, {"measurement": "collagen deposit in trabecular meshwork (Masson trichrome)", "setting": "[2]; topical dexamethasone 0.1% alone, vs untreated control", "value": "substantially increased"}, {"measurement": "increase in intraocular pressure compared with baseline (day 0)", "setting": "[3]; day 14, topical 0.1% Dex 4 times a day in both eyes", "value": "up to 6 mmHg"}, {"measurement": "ultrastructure of trabecular meshwork (electron microscopy)", "setting": "[4]; topical 0.1% dexamethasone for 42 days", "value": "deposition of electron dense materials"}]}, {"molecule": "C[N+](C)(C)[O-]", "note": "[TMAO, trimethylamine N-oxide]", "values": [{"measurement": "effect on dexamethasone-induced IOP rise", "setting": "[3]; topical TMAO 2 to 300 mM 4 times a day with Dex, study period of 18 days", "value": "did not prevent; also recorded: did not prevent or treat"}, {"measurement": "IOP difference between Dex+BSS and Dex+TMAO eyes", "setting": "[3]; topical TMAO 2 to 300 mM 4 times a day, 18 days", "value": "no significant difference"}]}, {"molecule": "sodium phenylbutyrate", "values": [{"measurement": "percentage of TM cell loss", "setting": "[1]; Dex 0.1% + PB 0.02 mM", "value": 39, "unit": "%"}, {"measurement": "percentage of TM cell loss", "setting": "[1]; Dex 0.1% + PB 0.1 mM", "value": 31, "unit": "%"}, {"measurement": "percentage of TM cell loss", "setting": "[1]; Dex 0.1% + PB 0.5 mM", "value": 26, "unit": "%"}, {"measurement": "adverse ocular or systemic effects", "setting": "[5]; application to the rabbit eye", "value": "No adverse ocular or systemic effects"}, {"measurement": "change in corneal endothelial cell density (specular microscopy)", "setting": "[5]; [10]", "value": "did not cause any significant change"}, {"measurement": "slit lamp biomicroscopy with fluorescein staining, defects in conjunctiva or cornea", "setting": "[5]; [10]", "value": "did not reveal any defects"}, {"measurement": "systemic signs (diarrhea, paralysis, convulsions/seizures, bleeding, death)", "setting": "[5]; topical 1 and 5 mM 4 times a day, both eyes, 7-day post-treatment study period", "value": "none of them exhibited diarrhea, paralysis, convulsions/seizures, bleeding and/or death"}, {"measurement": "ocular surface diseases (hyperemia, swelling, inflammation, ulcers, bleeding)", "setting": "[5]; topical 1 and 5 mM 4 times a day, examined days 7 and 14", "value": "No ocular surface (conjunctiva and cornea) diseases"}, {"measurement": "effect on glaucoma phenotypes / elevated intraocular pressure", "setting": "[6]", "value": "normalization of elevated intraocular pressure"}, {"measurement": "glycogen deposition in trabecular meshwork (periodic acid-Schiff)", "setting": "[2]; dexamethasone + sodium phenylbutyrate 1mM", "value": "greatly reduced"}, {"measurement": "collagen deposit in trabecular meshwork (Masson trichrome)", "setting": "[2]; dexamethasone + sodium phenylbutyrate", "value": "Reduced collagen stain"}, {"measurement": "mean percentage of reduction in IOP increase", "setting": "[3]; day 14, PB 0.5 mM applied 1 time a day", "value": 13.2, "unit": "%"}, {"measurement": "mean percentage of reduction in IOP increase", "setting": "[3]; day 14, PB 0.5 mM applied 2 times a day", "value": 54.4, "unit": "%"}, {"measurement": "mean percentage of reduction in IOP increase", "setting": "[3]; day 14, PB 0.5 mM applied 4 times a day", "value": 57.9, "unit": "%"}, {"measurement": "mean percentage of reduction in IOP increase", "setting": "[3]; day 14, PB 0.5 mM applied 5 times a day", "value": 74.9, "unit": "%"}, {"measurement": "reduction in steroid-induced IOP rise", "setting": "[3]; day 14, other test doses (of 0.01, 0.1, 0.5, 1, 5, 15 mM), 5 times a day, strong responders", "value": "about 50%"}, {"measurement": "percentage of mean reduction in IOP rise", "setting": "[3]; day 14, 5 times a day", "value": 45.0, "unit": "%"}, {"measurement": "percentage of mean reduction in IOP rise", "setting": "[3]; day 37, 5 times a day", "value": 84.7, "unit": "%"}, {"measurement": "percentage of mean reduction in IOP rise", "setting": "[3]; day 53, 5 times a day", "value": 50.0, "unit": "%"}, {"measurement": "mean IOP level after cessation of topical PB", "setting": "[7]; Phase II, day 43 to day 60", "value": "about 16.5 mmHg"}, {"measurement": "increase in IOP after cessation of topical PB", "setting": "[7]; day 43 to day 60, Dex+BSS after Dex+PB 0.5 mM", "value": "less than 2 mmHg"}, {"measurement": "IOP at end of experiment", "setting": "[7]; day 60, 18 days after cessation of PB", "value": 16.6, "unit": "mmHg"}, {"measurement": "duration of suppression of IOP rise after cessation of eyedrops", "setting": "[7]; topical PB 0.5 mM 5 times a day to day 42, then Dex+BSS", "value": "≤ 18", "unit": "days"}, {"measurement": "mean IOP level", "setting": "[8]; day 67, eyes treated with PB 1 mM throughout both phases", "value": 15.4, "unit": "mmHg"}, {"measurement": "IOP after treatment", "setting": "[8]; day 67, topical 1 mM from day 56 in left eyes previously on Dex+BSS (20.5 mmHg on day 56)", "value": 16.6, "unit": "mmHg"}, {"measurement": "reduction in IOP", "setting": "[8]; topical 1 mM, treatment period of 11 days (day 56 to day 67)", "value": 19, "unit": "%"}, {"measurement": "cytotoxicity to trabecular meshwork cells (MTT)", "setting": "[9]", "value": "not cytotoxic"}, {"measurement": "ultrastructure of trabecular meshwork (electron microscopy), deposition of electron dense materials", "setting": "[4]; dexamethasone with concurrent topical 1 mM sodium phenylbutyrate for 48 days", "value": "deposition was not apparent"}]}]}
